Data as given in PubChem BioAssay AID248 (DTP/NCI, 2004).
Several values for one entry are separate records, joined by “and”; a condition that tells them apart may be missing. Identical values can stand only once. Inconclusive results and toxic doses are left out. Cut-off read from the data, not from the text of the source: active = T/C of 150% or more; inactive = T/C below 125%.

Tested on: L1210 leukemia ip in BDF1 mice, survival T/C
Test: NCI In Vivo Anticancer Drug Screen. Data for tumor model L1210 Leukemia (intraperitoneal) in B6D2F1 (BDF1) mice
Settings: endpoint: mean survival time, higher = longer survival
Procedure, shortened: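 Antitumor effect is assessed in tumor-bearing animals. Survival in the compound arm is compared with a vehicle-dosed control arm and expressed as their quotient.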

[1] = dose: 100.0 mg/kg/injection, schedule: Q01DX009 (ip), vehicle: Klucel (hydroxypropylcellulose) (HPC)
[2] = dose: 200.0 mg/kg/injection, schedule: Q01DX009 (ip), vehicle: Klucel (hydroxypropylcellulose) (HPC)
[3] = dose: 400.0 mg/kg/injection, schedule: Q01DX009 (ip), vehicle: Klucel (hydroxypropylcellulose) (HPC)
[4] = dose: 100.0 mg/kg/injection, schedule: Q04DX002 (ip), vehicle: saline
[5] = dose: 100.0 mg/kg/injection, schedule: Q04DX003 (ip), vehicle: saline
[6] = dose: 200.0 mg/kg/injection, schedule: Q04DX002 (ip), vehicle: saline
[7] = dose: 200.0 mg/kg/injection, schedule: Q04DX003 (ip), vehicle: saline
[8] = dose: 400.0 mg/kg/injection, schedule: Q04DX002 (ip), vehicle: saline
[9] = dose: 400.0 mg/kg/injection, schedule: Q04DX003 (ip), vehicle: saline
[10] = dose: 100.0 mg/kg/injection, schedule: Q04DX003 (ip), vehicle: Klucel (hydroxypropylcellulose) (HPC)
[11] = dose: 200.0 mg/kg/injection, schedule: Q04DX003 (ip), vehicle: Klucel (hydroxypropylcellulose) (HPC)
[12] = dose: 400.0 mg/kg/injection, schedule: Q04DX003 (ip), vehicle: Klucel (hydroxypropylcellulose) (HPC)
[13] = dose: 100.0 mg/kg/injection, schedule: Q04DX003 (ip), vehicle: saline with Tween-80
[14] = dose: 200.0 mg/kg/injection, schedule: Q04DX003 (ip), vehicle: saline with Tween-80
[15] = dose: 400.0 mg/kg/injection, schedule: Q04DX003 (ip), vehicle: saline with Tween-80
[16] = dose: 25.0 mg/kg/injection, schedule: Q01DX009 (ip), vehicle: Klucel (hydroxypropylcellulose) (HPC)
[17] = dose: 50.0 mg/kg/injection, schedule: Q01DX009 (ip), vehicle: Klucel (hydroxypropylcellulose) (HPC)
[18] = dose: 100.0 mg/kg/injection, schedule: Q04DX003 (ip), vehicle: other
[19] = dose: 200.0 mg/kg/injection, schedule: Q04DX003 (ip), vehicle: other
[20] = dose: 400.0 mg/kg/injection, schedule: Q04DX003 (ip), vehicle: other
[21] = dose: 100.0 mg/kg/injection, schedule: Q01DX009 (ip), vehicle: saline with Tween-80
[22] = dose: 200.0 mg/kg/injection, schedule: Q01DX009 (ip), vehicle: saline with Tween-80
[23] = dose: 400.0 mg/kg/injection, schedule: Q01DX009 (ip), vehicle: saline with Tween-80

Measured: T/C

CN(C)C(=O)c1ccccc1O
inactive: [1] 100 % of control | [2] 90 % of control | [3] 90 % of control

COC(CN)C(Cl)(Cl)Cl (stereo unspecified)
inactive: dose: 100.0 mg/kg/injection, schedule: Q01DX001 (ip), vehicle: saline 98 % of control | [4] 96 % of control and 89 % of control | [5] 98 % of control | dose: 200.0 mg/kg/injection, schedule: Q01DX001 (ip), vehicle: saline 107 % of control | [6] 94 % of control and 100 % of control | [7] 107 % of control | dose: 400.0 mg/kg/injection, schedule: Q01DX001 (ip), vehicle: saline 96 % of control | [8] 96 % of control and 100 % of control | [9] 106 % of control

O=C(CBr)NC(Cc1ccccc1)C(=O)O (stereo unspecified)
inactive: dose: 75.0 mg/kg/injection, schedule: Q01DX001 (ip), vehicle: saline 94 % of control and 90 % of control | dose: 150.0 mg/kg/injection, schedule: Q01DX001 (ip), vehicle: saline 103 % of control | dose: 300.0 mg/kg/injection, schedule: Q01DX001 (ip), vehicle: saline 90 % of control

Cc1cccc(C)c1OC(=O)Nc1ccccc1
inactive: dose: 100.0 mg/kg/injection, schedule: Q04DX002 (ip), vehicle: Klucel (hydroxypropylcellulose) (HPC) 101 % of control | dose: 200.0 mg/kg/injection, schedule: Q04DX002 (ip), vehicle: Klucel (hydroxypropylcellulose) (HPC) 97 % of control | dose: 400.0 mg/kg/injection, schedule: Q04DX002 (ip), vehicle: Klucel (hydroxypropylcellulose) (HPC) 101 % of control

Cc1nc(C)c(-c2ccc([N+](=O)[O-])cc2)o1
inactive: dose: 100.0 mg/kg/injection, schedule: Q01DX001 (ip), vehicle: saline with Tween-80 105 % of control | dose: 200.0 mg/kg/injection, schedule: Q01DX001 (ip), vehicle: saline with Tween-80 105 % of control | dose: 400.0 mg/kg/injection, schedule: Q01DX001 (ip), vehicle: saline with Tween-80 102 % of control

O=C(Nc1ccc(N=Nc2ccccc2)cc1)Nc1cc([N+](=O)[O-])ccc1F
inactive: [10] 86 % of control | [11] 86 % of control | [12] 91 % of control

O=C(O)c1ccc[n+](Cc2ccccc2)c1
inactive: dose: 75.0 mg/kg/injection, schedule: Q04DX003 (ip), vehicle: saline 90 % of control | dose: 150.0 mg/kg/injection, schedule: Q04DX003 (ip), vehicle: saline 97 % of control | dose: 300.0 mg/kg/injection, schedule: Q04DX003 (ip), vehicle: saline 94 % of control

CCOc1ccc(C2NC(=O)c3ccccc3N2)cc1 (stereo unspecified)
inactive: [1] 104 % of control | [10] 91 % of control | [2] 97 % of control | [11] 98 % of control | [3] 97 % of control | [12] 98 % of control

O=Cc1ccc(C=O)cc1
inactive: [13] 94 % of control | [14] 105 % of control | [15] 106 % of control

NS(=O)(=O)c1ccc(Cl)c(Cl)c1
inactive: [13] 97 % of control | [14] 103 % of control | [15] 93 % of control

N/C(Cc1ccc([N+](=O)[O-])cc1)=N\O
inactive: [16] 100 % of control | [17] 91 % of control | [1] 100 % of control

O=C1C(Cl)=C(Nc2ccccc2)C(=O)c2ccccc21
inactive: [10] 101 % of control | [11] 101 % of control | [12] 102 % of control

CCN(CC)CCOc1ccccc1C(C)C
inactive: dose: 20.0 mg/kg/injection, schedule: Q04DX003 (ip), vehicle: saline 118 % of control | dose: 40.0 mg/kg/injection, schedule: Q04DX003 (ip), vehicle: saline 97 % of control | dose: 80.0 mg/kg/injection, schedule: Q04DX003 (ip), vehicle: saline 94 % of control | [5] 101 % of control

Cc1ccc(C2Nc3ccccc3S(=O)(=O)C2c2ccccc2)cc1 (stereo unspecified)
inactive: dose: 100.0 mg/kg/injection, schedule: Q01DX001 (ip), vehicle: Klucel (hydroxypropylcellulose) (HPC) 95 % of control | dose: 200.0 mg/kg/injection, schedule: Q01DX001 (ip), vehicle: Klucel (hydroxypropylcellulose) (HPC) 106 % of control | dose: 400.0 mg/kg/injection, schedule: Q01DX001 (ip), vehicle: Klucel (hydroxypropylcellulose) (HPC) 101 % of control

COC(=O)CCNC(=O)C1CSC(C)(C)N1C=O (stereo unspecified)
inactive: [5] 97 % of control | [7] 97 % of control | [9] 90 % of control

O=[N+]([O-])c1cccc(Oc2ncccc2[N+](=O)[O-])c1
inactive: [1] 95 % of control | [18] 105 % of control | [2] 102 % of control | [19] 103 % of control | [3] 94 % of control | [20] 100 % of control

C=CCc1c[nH]c(=O)[nH]c1=O.[Hg]
inactive: dose: 12.5 mg/kg/injection, schedule: Q01DX009 (ip), vehicle: Klucel (hydroxypropylcellulose) (HPC) 93 % of control | [16] 98 % of control | dose: 25.0 mg/kg/injection, schedule: Q04DX003 (ip), vehicle: Klucel (hydroxypropylcellulose) (HPC) 92 % of control | dose: 50.0 mg/kg/injection, schedule: Q04DX003 (ip), vehicle: Klucel (hydroxypropylcellulose) (HPC) 89 % of control | [10] 97 % of control

CCCCCC(C)NCCOC(=O)c1ccc(N)cc1 (stereo unspecified)
inactive: dose: 75.0 mg/kg/injection, schedule: Q01DX001 (ip), vehicle: other 98 % of control

O=C(CCCl)NC(Cc1ccccc1)c1ccccc1 (stereo unspecified)
inactive: [1] 102 % of control | [10] 96 % of control | [2] 92 % of control | [11] 98 % of control | [3] 92 % of control | [12] 95 % of control

Nc1nc(N)c(CCCOc2ccc(NC(=O)c3cccc(S(=O)OF)c3)cc2)c(N)n1 (stereo unspecified)
inactive: dose: 0.8 mg/kg/injection, schedule: Q01DX015 (ip), vehicle: saline 97 % of control | dose: 4.0 mg/kg/injection, schedule: Q01DX015 (ip), vehicle: saline 97 % of control | dose: 20.0 mg/kg/injection, schedule: Q01DX015 (ip), vehicle: saline 95 % of control | dose: 100.0 mg/kg/injection, schedule: Q01DX015 (ip), vehicle: saline 106 % of control | dose: 133.0 mg/kg/injection, schedule: Q01DX015 (ip), vehicle: saline 91 % of control

C(=Nc1ccccc1)c1ccccc1B1Oc2ccccc2O1
inactive: [1] 100 % of control | [2] 96 % of control | [3] 119 % of control

O=C(O)/C=C/C(=O)Nc1ccc(Br)c(Cl)c1
inactive: [21] 86 % of control

CN(C)c1cc2c3c(c1)CCCN3CCC2
inactive: dose: 6.25 mg/kg/injection, schedule: Q01DX001 (ip), vehicle: saline 108 % of control | dose: 12.5 mg/kg/injection, schedule: Q01DX001 (ip), vehicle: saline 101 % of control

O=C1OCC/C1=C\C1CO1 (stereo unspecified)
inactive: [4] 97 % of control | [6] 95 % of control | [8] 101 % of control

COc1cc2c3c(c1)-c1nc4ccccc4cc1CN3CCC2
inactive: dose: 100.0 mg/kg/injection, schedule: Q01DX009 (ip), vehicle: other 102 % of control | [18] 97 % of control | dose: 200.0 mg/kg/injection, schedule: Q01DX009 (ip), vehicle: other 102 % of control | [19] 100 % of control | dose: 400.0 mg/kg/injection, schedule: Q01DX009 (ip), vehicle: other 114 % of control | [20] 97 % of control

COc1cc(/C=N\N=C\c2cc(OC)c(OC)c(OC)c2)cc(OC)c1OC
inactive: [21] 96 % of control | [13] 97 % of control | [22] 96 % of control | [14] 92 % of control | [23] 92 % of control | [15] 92 % of control

CN1C(=O)CSC1=S
inactive: [16] 90 % of control | [17] 87 % of control | [1] 93 % of control

CCCNC(=O)C1C2CC3OC(=O)C1C3C2 (stereo unspecified)
inactive: [13] 90 % of control | [5] 98 % of control | [14] 95 % of control | [7] 91 % of control | [15] 93 % of control | [9] 102 % of control

COC(OC)c1cc(=O)[nH]c(NC(=O)C(Cl)Cl)n1
inactive: dose: 25.0 mg/kg/injection, schedule: Q01DX009 (ip), vehicle: saline with Tween-80 90 % of control | dose: 50.0 mg/kg/injection, schedule: Q01DX009 (ip), vehicle: saline with Tween-80 107 % of control | [21] 106 % of control | [13] 98 % of control | [22] 89 % of control | [14] 104 % of control | [23] 93 % of control | [15] 94 % of control
